# Columns and labels:
# Assay type in all cases: in vivo
# [1] = system: Colletotricum lagenarium; test: Cucumber Anthracnose (COLLLA) whole-plant disease control test; settings: Cucumis sativus, foliar; 200 ppm applied to foliage of cucumber; inoculated one day after treatment; read-out: COLLLA disease control
# [2] = system: Erysiphe cichoracaerum; test: Cucumber Powdery Mildew (ERYSCI) whole-plant disease control test; settings: Erysiphe, foliar; 200 ppm applied to foliage of cucumber; inoculated one day after treatment; read-out: ERYSCI disease control
# [3] = system: Leptosphaeria nodorum; test: Glume Blotch of Wheat (LEPTNO) whole-plant disease control test; settings: Parastagonospora nodorum, foliar; for pest or weed control at 200 ppm: 200 ppm applied to foliage of wheat, inoculated one day after treatment, read-out: LEPTNO disease control; for pest or weed control at 75 ppm: 75 ppm (footnote b), wheat foliage
# [4] = system: Phytophthora infestans; test: whole plant or invertebrate; settings: Phytophthora infestans, in Solanum lycopersicum, foliar, read-out: PHYTIN disease control, 200 ppm applied to foliage of tomato; inoculated one day after treatment
# [5] = system: Puccinia recondita tritici; test: Leaf Rust of Wheat (PUCCRT) whole-plant disease control test; settings: Puccinia recondita, foliar; for pest or weed control at 200 ppm: 200 ppm applied to foliage of wheat, inoculated one day after treatment, read-out: PUCCRT disease control; for pest or weed control at 8.3 ppm: 8.3 ppm (footnote c), wheat foliage
# [6] = system: Magnaporthe grisea=Pyricularia oryzae; test: whole plant or invertebrate; settings: Pyricularia oryzae, foliar; for pest or weed control at 200 ppm: read-out: PYRIOR disease control, 200 ppm applied to foliage of rice, inoculated one day after treatment; for pest or weed control at 8.3 ppm: read-out: PYRIOR disease control, 8.3 ppm (footnote c), rice foliage
# [7] = system: Mycosphaerella graminicola=Septoria tritici; test: Speckled Leaf Blotch of Wheat (SEPTTR) whole-plant disease control test; settings: Mycosphaerella, foliar, 75 ppm applied to foliage of wheat; read-out: SEPTTR disease control
Structure (SMILES),pest or weed control at 200 ppm [1] [%],pest or weed control at 200 ppm [2] [%],pest or weed control at 200 ppm [3] [%],pest or weed control at 200 ppm [4] [%],pest or weed control at 200 ppm [5] [%],pest or weed control at 200 ppm [6] [%],pest or weed control at 75 ppm [7] [%],pest or weed control at 75 ppm [3] [%],pest or weed control at 8.3 ppm [5] [%],pest or weed control at 8.3 ppm [6] [%]
"FC(F)(F)c1ccc(Oc2ccc(CCNc3ncnc4scc(Cl)c34)cc2)nc1 [Compound 1, 5-(Chlorothieno[2,3-d]pyrimidin-4-yl)-{2-[4-(5-trifluoromethylpyridin-2-yloxy)phenyl]ethyl}amine]",0 to 49,50 to 79,50 to 79,0 to 49,80 to 100,80 to 100,50 to 79,–,–,–
CS(=O)(=O)c1ccc(Oc2ccc(CCNc3ncnc4scc(Cl)c34)cc2)nc1 [Compound 2],0 to 49,0 to 49,0 to 49,0 to 49,80 to 100,50 to 79,–,–,–,–
O=[N+]([O-])c1ccc(Oc2ccc(CCNc3ncnc4scc(Cl)c34)cc2)nc1 [Compound 3],50 to 79,50 to 79,50 to 79,80 to 100,80 to 100,80 to 100,50 to 79,–,–,–
N#Cc1ccc(Oc2ccc(CCNc3ncnc4scc(Cl)c34)cc2)nc1 [Compound 4],80 to 100,80 to 100,80 to 100,80 to 100,80 to 100,80 to 100,50 to 79,–,–,–
CC(C)(C)OC(=O)c1ccc(Oc2ccc(CCNc3ncnc4scc(Cl)c34)cc2)cc1 [Compound 6],50 to 79,80 to 100,0 to 49,50 to 79,80 to 100,80 to 100,50 to 79,–,–,–
"Clc1csc2ncnc(NCCc3ccc(Oc4ccc(Br)cn4)cc3)c12 [Compound 7, {2-[4-(5-Bromopyridin-2-yloxy)phenyl]ethyl}-(5-chlorothieno[2,3-d]pyrimidin-4-yl}amine]",50 to 79,80 to 100,80 to 100,0 to 49,80 to 100,50 to 79,50 to 79,–,–,–
COC(=O)c1ccc(Oc2ccc(CCNc3ncnc4scc(Cl)c34)cc2)nc1 [Compound 20],0 to 49,0 to 49,0 to 49,0 to 49,80 to 100,0 to 49,–,–,–,–
NC(=O)c1cccc(Oc2ccc(CCNc3ncnc4scc(Cl)c34)cc2)n1 [Compound 82],–,–,–,–,–,–,50 to 79,50 to 79,80 to 100,80 to 100
O=[N+]([O-])c1cccc(Oc2ccc(CCNc3ncnc4scc(Cl)c34)cc2)n1 [Compound 83],–,–,–,–,–,–,50 to 79,50 to 79,80 to 100,80 to 100
"COc1cccc(Oc2ccc(CCNc3ncnc4scc(Cl)c34)cc2)n1 [Compound 84, (5-Chlorothieno[2,3-d]pyrimidin-4-yl)-{2-[4-(6-methoxypyridin-2-yloxy)phenyl]ethyl}amine]",–,–,–,–,–,–,50 to 79,50 to 79,80 to 100,80 to 100
O=c1ncn(-c2cccc(Oc3ccc(CCNc4ncnc5scc(Cl)c45)cc3)n2)[nH]1 [Compound 90],–,–,–,–,–,–,50 to 79,0 to 49,0 to 49,50 to 79
C[S+]([O-])c1cc(Cl)nc(Oc2ccc(CCNc3ncnc4scc(Cl)c34)cc2)c1 (stereo not drawn) [Compound 92],–,–,–,–,–,–,50 to 79,0 to 49,80 to 100,80 to 100
CSc1cc(C(F)(F)F)cc(Oc2ccc(CCNc3ncnc4scc(Cl)c34)cc2)n1 [Compound 93],–,–,–,–,–,–,50 to 79,0 to 49,80 to 100,80 to 100
CC(C)(C)c1noc(-c2cccc(Oc3ccc(CCNc4ncnc5scc(Cl)c45)cc3)n2)n1 [Compound 96],–,–,–,–,–,–,50 to 79,50 to 79,80 to 100,50 to 79
O=C(O)c1ccc(C(F)(F)F)nc1Oc1ccc(CCNc2ncnc3scc(Cl)c23)cc1 [Compound 98],–,–,–,–,–,–,50 to 79,0 to 49,0 to 49,0 to 49
CC(=O)c1cccc(Oc2ccc(CCNc3ncnc4scc(Cl)c34)cc2)n1 [Compound 100],–,–,–,–,–,–,–,0 to 49,80 to 100,80 to 100
"CC(C)(C)C(=O)NNc1cccc(Oc2ccc(CCNc3ncnc4scc(Cl)c34)cc2)n1 [Compound 102, 2,2-Dimethylpropionic acid N′-(6-{4-[2-(5-chlorothieno[2,3-d]pyrimidin-4-ylamino)ethyl]phenoxy}pyridine-2-yl)-hydrazide]",–,–,–,–,–,–,0 to 49,0 to 49,0 to 49,50 to 79

Structure (SMILES),pest or weed control at 200 ppm [1] [%],pest or weed control at 200 ppm [2] [%],pest or weed control at 200 ppm [3] [%],pest or weed control at 200 ppm [4] [%],pest or weed control at 200 ppm [5] [%],pest or weed control at 200 ppm [6] [%],pest or weed control at 75 ppm [7] [%],pest or weed control at 75 ppm [3] [%],pest or weed control at 8.3 ppm [5] [%],pest or weed control at 8.3 ppm [6] [%]
CC(C)(C)c1nnc(Oc2ccc(CCNc3ncnc4scc(Cl)c34)cc2)s1 [Compound 109],–,–,–,–,–,–,50 to 79,50 to 79,80 to 100,80 to 100
FC(F)(F)COc1cccc(Oc2ccc(CCNc3ncnc4scc(Cl)c34)cc2)n1 [Compound 111],–,–,–,–,–,–,50 to 79,0 to 49,50 to 79,80 to 100
COc1cnc(C(F)(F)F)c(F)c1Oc1ccc(CCNc2ncnc3scc(Cl)c23)cc1 [Compound 113],–,–,–,–,–,–,0 to 49,0 to 49,80 to 100,80 to 100
Clc1csc2ncnc(NCCc3ccc(Oc4snnc4-c4ccccc4)cc3)c12 [Compound 115],–,–,–,–,–,–,50 to 79,50 to 79,80 to 100,50 to 79
COc1ccc([N+](=O)[O-])c(Oc2ccc(CCNc3ncnc4scc(Cl)c34)cc2)n1 [Compound 116],–,–,–,–,–,–,0 to 49,0 to 49,80 to 100,0 to 49
CC(C)Cc1nnc(Oc2ccc(CCNc3ncnc4scc(Cl)c34)cc2)s1 [Compound 117],–,–,–,–,–,–,0 to 49,0 to 49,80 to 100,80 to 100
Clc1csc2ncnc(NCCc3ccc(Oc4nnc(-c5ccncc5)s4)cc3)c12 [Compound 118],–,–,–,–,–,–,0 to 49,0 to 49,80 to 100,80 to 100
Clc1csc2ncnc(NCCc3ccc(Oc4nnc(COc5ccccc5)s4)cc3)c12 [Compound 119],–,–,–,–,–,–,0 to 49,0 to 49,80 to 100,80 to 100
O=Cc1sc(Oc2ccc(CCNc3ncnc4scc(Cl)c34)cc2)nc1Cl [Compound 121],–,–,–,–,–,–,0 to 49,0 to 49,80 to 100,80 to 100
FC(F)(F)c1cnccc1Oc1ccc(CCNc2ncnc3scc(Cl)c23)cc1 [Compound 126],–,–,–,–,–,–,80 to 100,50 to 79,80 to 100,–
FC(F)(F)COc1ccnc(Oc2ccc(CCNc3ncnc4scc(Cl)c34)cc2)c1 [Compound 127],–,–,–,–,–,–,50 to 79,80 to 100,80 to 100,–
Nc1c(F)c(F)nc(Oc2ccc(CCNc3ncnc4scc(Cl)c34)cc2)c1F [Compound 128],–,–,–,–,–,–,–,–,80 to 100,80 to 100
Fc1cc(F)c(Oc2ccc(CCNc3ncnc4scc(Cl)c34)cc2)nc1F [Compound 129],–,–,–,–,80 to 100,80 to 100,80 to 100,50 to 79,–,–
N#Cc1c(Cl)cncc1Oc1cccc(CCNc2ncnc3scc(Cl)c23)c1 [Compound 130],0 to 49,0 to 49,–,80 to 100,80 to 100,80 to 100,0 to 49,–,–,–
Fc1cnc(C(F)(F)F)c(F)c1Oc1cccc(CCNc2ncnc3scc(Cl)c23)c1 [Compound 131],–,–,–,–,–,–,–,–,50 to 79,–
Fc1ccc(F)c(Oc2ccc(CCNc3ncnc4scc(Cl)c34)cc2)n1 [Compound 132],–,–,–,–,–,–,–,–,80 to 100,80 to 100
N#Cc1ccc(C(F)(F)F)nc1Oc1ccc(CCNc2ncnc3scc(Cl)c23)cc1 [Compound 133],–,–,–,–,–,–,–,–,0 to 49,–

# Reference: patent US7531482B2, “Thieno-pyrimidine compounds having fungicidal activity” (Dow AgroSciences LLC, priority 2005, dated 2009)
